In patent publication US6472418B1, “Non-peptide NK1 receptors antagonists” (Warner-Lambert Company, priority 1998, dated 2002) one finds IC50 data, which are given here for 35 compounds.

Broadly, the IC50 is the concentration that inhibits the measured activity by half.

T1 sequence (P25103 whole entry): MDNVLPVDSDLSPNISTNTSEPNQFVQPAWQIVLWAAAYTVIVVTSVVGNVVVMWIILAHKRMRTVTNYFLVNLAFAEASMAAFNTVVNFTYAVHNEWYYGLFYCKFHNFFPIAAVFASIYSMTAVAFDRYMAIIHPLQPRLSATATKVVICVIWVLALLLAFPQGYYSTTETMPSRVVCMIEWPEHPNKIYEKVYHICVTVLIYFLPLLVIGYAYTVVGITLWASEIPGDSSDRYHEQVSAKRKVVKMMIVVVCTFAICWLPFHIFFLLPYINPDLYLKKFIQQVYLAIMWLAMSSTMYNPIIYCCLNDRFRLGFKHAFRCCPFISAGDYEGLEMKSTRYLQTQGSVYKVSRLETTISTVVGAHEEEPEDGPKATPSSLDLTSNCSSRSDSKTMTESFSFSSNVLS

One experiment has as its target T1, Human NK1 Receptor (Homo sapiens, UniProt P25103).
T1 construct: endogenous in cells; host or cells: Human lymphoma IM9 cells (whole cells)
The experiment is described as follows: In Vitro Human NK1 Receptor Binding Assay ([125I]Bolton-Hunter substance P displacement, IM9 cells). The note with it: Human lymphoma IM9 cells, [125I]Bolton-Hunter substance P (0.05-0.1 nM), 50 min at 21° C.; Table 1; read-out: NK1 binding IC50. In short, it runs like this: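 Radioligand displacement on whole IM9 human lymphoma cells (2.5×10^6 cells/mL) using [125I]Bolton-Hunter substance P (0.05-0.1 nM), 50 min at 21° C in Tris pH 7.4/MnCl2 buffer with protease inhibitors. Non-specific binding defined by […] [Sar9, Met(O2)11] substance P. Filtration, gamma counting, iterative curve fitting.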
For the compound `C[C@H](NC(=O)[C@@H](Cc1c[nH]c2ccccc12)NCc1cccc(C#N)c1)c1ccccc1` (relative stereo) [Example 14, 2-(3-Cyano-benzylamino)-3-(1H-indol-3-yl)-N-(1-phenyl-ethyl)-propionamide, [R-(R*,S*)]], the IC50 was found to be 4.7 nM.

The same experiment, now with this note: Human lymphoma IM9 cells, [125I]Bolton-Hunter substance P; Table 3, array-synthesis products; read-out: IC50 (nM) hNK1.
On to `O=C(NCc1cc(C(F)(F)F)cc(C(F)(F)F)c1)C(Cc1c[nH]c2ccccc12)NCc1cc2ccccc2o1` (centres unmarked) [Example 218, 2-[(Benzofuran-2-ylmethyl)-amino]-N-(3,5-bis-trifluoromethyl-benzyl)-3-(1H-indol-3-yl)-propionamide], for which the IC50 came to 294 nM.
With `O=C(NCc1cc(Cl)sc1Cl)C(Cc1c[nH]c2ccccc12)NCc1cc2ccccc2o1` (centres unmarked) [Example 215, 2-[(Benzofuran-2-ylmethyl)-amino]-N-(2,5-dichloro-thiophen-3-ylmethyl)-3-(1H-indol-3-yl)-propionamide], the concentration for half-maximal inhibition (IC50) came out at 70 nM.
In the case of `O=C(NCc1ccc(F)cc1)C(Cc1c[nH]c2ccccc12)NCc1cc2ccccc2o1` (centres unmarked) [Example 244, 2-[(Benzofuran-2-ylmethyl)-amino]-N-(4-fluoro-benzyl)-3-(1H-indol-3-yl)-propionamide], the IC50 was found to be 12 nM.
Still for that read-out and setting: the value for `COc1ccc(C(C)NC(=O)C(Cc2c[nH]c3ccccc23)NCc2cc3ccccc3o2)cc1` (centres unmarked) [Example 255, 2-[(Benzofuran-2-ylmethyl)-amino]-3-(1H-indol-3-yl)-N-[1-(4-methoxy-phenyl)-ethyl]-propionamide] was 9 nM; that for `O=C(NCCSCc1ccccc1)C(Cc1c[nH]c2ccccc12)NCc1cc2ccccc2o1` (centres unmarked) [Example 296, 2-[(Benzofuran-2-ylmethyl)-amino]-N-(2-benzylsulfanyl-ethyl)-3-(1H-indol-3-yl)-propionamide] was 1340 nM.
As for `O=C(NC1(CO)CCCC1)C(Cc1c[nH]c2ccccc12)NCc1cc2ccccc2o1` (centres unmarked) [Example 211, 2-[(Benzofuran-2-ylmethyl)-amino]-N-(1-hydroxymethylcyclopentyl)-3-(1H-indol-3-yl)-propionamide], the IC50 is > 10000 nM.
As for `O=C(NCc1ccncc1)C(Cc1c[nH]c2ccccc12)NCc1cc2ccccc2o1` (centres unmarked) [Example 240], the IC50 stood at 196 nM.
Same read-out and setting: the value for `CC(NC(=O)C(Cc1c[nH]c2ccccc12)NCc1cc2ccccc2o1)c1cccc2ccccc12` (centres unmarked) [Example 207, 2-[(Benzofuran-2-ylmethyl)-amino]-3-(1H-indol-3-yl)-N-(1-naphthalen-1-yl-ethyl)-propionamide] was 591 nM; that for `O=C(NC1CCCc2ccccc21)C(Cc1c[nH]c2ccccc12)NCc1cc2ccccc2o1` (centres unmarked) [Example 194, 2-[(Benzofuran-2-ylmethyl)-amino]-3-(1H-indol-3-yl)-N-(1,2,3,4-tetrahydro-naphthalen-1-yl)-propionamide] was 703 nM.
Regarding `O=C(NCc1ccc(F)cc1F)C(Cc1c[nH]c2ccccc12)NCc1cc2ccccc2o1` (centres unmarked) [Example 301, 2-[(Benzofuran-2-ylmethyl)-amino]-N-(2,4-difluoro-benzyl)-3-(1H-indol-3-yl)-propionamide], the IC50 worked out at 53 nM.
The same measure, in the same setting: the value for `O=C(NCCc1ccccc1)C(Cc1c[nH]c2ccccc12)NCc1cc2ccccc2o1` (centres unmarked) [Example 246, 2-[(Benzofuran-2-ylmethyl)-amino]-3-(1H-indol-3-yl)-N-phenethyl-propionamide] was 77 nM; that for `Cc1ccc(CNC(=O)C(Cc2c[nH]c3ccccc23)NCc2cc3ccccc3o2)cc1` (centres unmarked) [Example 209, 2-[(Benzofuran-2-ylmethyl)-amino]-3-(1H-indol-3-yl)-N-(4-methyl-benzyl)-propionamide] was 82 nM; that for `O=C(NCc1ccccc1)C(Cc1c[nH]c2ccccc12)NCc1cc2ccccc2o1` (centres unmarked) [Example 254, 2-[(Benzofuran-2-ylmethyl)-amino]-N-benzyl-3-(1H-indol-3-yl)-propionamide] was 22 nM.
The same measure, in the same setting: for `O=C(NCCc1ccc([N+](=O)[O-])cc1)C(Cc1c[nH]c2ccccc12)NCc1cc2ccccc2o1` (centres unmarked) [Example 281, 2-[(Benzofuran-2-ylmethyl)-amino]-3-(1H-indol-3-yl)-N-[2-(4-nitro-phenyl)-ethyl]-propionamide] the value was 51 nM; for `O=C(NCc1ccccc1F)C(Cc1c[nH]c2ccccc12)NCc1cc2ccccc2o1` (centres unmarked) [Example 238, 2-[(Benzofuran-2-ylmethyl)-amino]-N-(2-fluoro-benzyl)-3-(1H-indol-3-yl)-propionamide], 89 nM.
On the same count and under the same terms, for `O=C(NCc1ccc(Cl)c(Cl)c1)C(Cc1c[nH]c2ccccc12)NCc1cc2ccccc2o1` (centres unmarked) [Example 279, 2-[(Benzofuran-2-ylmethyl)-amino]-N-(3,4-dichloro-benzyl)-3-(1H-indol-3-yl)-propionamide] the value was 30 nM.
As to `Cc1ccccc1CNC(=O)C(Cc1c[nH]c2ccccc12)NCc1cc2ccccc2o1` (centres unmarked) [Example 242, 2-[(Benzofuran-2-ylmethyl)-amino]-3-(1H-indol-3-yl)-N-(2-methyl-benzyl)-propionamide], the IC50 came to 170 nM.

Staying with this experiment, now noted: Table 4; [125I]Bolton-Hunter substance P displacement, human IM9 cells; read-out: IC50 (nM) hNK1.
Regarding “3-(1H-Indol-3-yl)-2-methyl-N-(1-phenyl-ethyl)-2-[4-(2-pyrrolidin-1-yl-ethoxy)-benzylamino]-propionamide [compound 335]”, the IC50 was > 10000 nM.
The same measure, in the same setting: for “4-{[2-(1H-Indol-3-yl)-1-methyl-1-(1-phenyl-ethylcarbamoyl)-ethylamino]-methyl}-benzoic acid methyl ester [compound 337]” the value was 1920 nM; for `CC(NC(=O)C(C)(Cc1c[nH]c2ccccc12)NCC=Cc1ccco1)c1ccccc1` (centres unmarked) [compound 322, 2-(3-Furan-2-yl-allylamino)-3-(1H-indol-3-yl)-2-methyl-N-(1-phenyl-ethyl)-propionamide], 91 nM.

Still in this experiment, the particulars now being: Table 5; [125I]Bolton-Hunter substance P displacement, human IM9 cells; read-out: IC50 (nM) hNK1.
Turning to `CC(NC(=O)C(Cc1c[nH]c2ccccc12)NCc1ccc2c(c1)Cc1ccccc1-2)c1ccccc1` (centres unmarked) [compound 391], the IC50 is 846 nM.
Turning to `CC(NC(=O)C(Cc1c[nH]c2ccccc12)NCC=Cc1ccc(OCc2ccccc2)cc1)c1ccccc1` (centres unmarked) [compound 378], the IC50 stood at 932 nM.
Turning to `CC(NC(=O)C(Cc1c[nH]c2ccccc12)NCc1ccc(-c2ccccc2)cc1)c1ccccc1` (centres unmarked) [compound 385], the half-inhibitory concentration (IC50) was determined as 1460 nM.

The experiment is the same for the next values; noted with them: human NK1 receptor, IM9 cells, [125I]Bolton-Hunter substance P; read-out: IC50 (nM) hNK1.
`CC(Cc1c[nH]c2ccccc12)(NCc1cc2ccccc2o1)C(=O)NCc1ccc2c(c1)OCO2` (centres unmarked) [compound 174, N-Benzo[1,3]dioxol-5-ylmethyl-2-[(benzofuran-2-ylmethyl)-amino]-3-(1H-indol-3-yl)-2-methyl-propionamide]: the 50% inhibitory concentration (IC50) was found to be 94 nM.
For `CC(Cc1c[nH]c2ccccc12)(NCc1cc2ccccc2o1)C(=O)NCc1ccc(F)cc1F` (centres unmarked) [compound 181, 2-[(Benzofuran-2-ylmethyl)-amino]-N-(2,4-difluoro-benzyl)-3-(1H-indol-3-yl)-2-methyl-propionamide], the IC50 stood at 269 nM.
Take `CNCCNC(=O)C(C)(Cc1c[nH]c2ccccc12)NCc1cc2ccccc2o1` (centres unmarked) [compound 76, 2-[(Benzofuran-2-ylmethyl)-amino]-3-(1H-indol-3-yl)-2-methyl-N-(2-methylamino-ethyl)-propionamide]: the IC50 came to 3700 nM.
Regarding `CC(NC(=O)C(C)(Cc1c[nH]c2ccccc12)NCc1cc2ccccc2o1)c1ccc(Cl)cc1` (centres unmarked) [compound 30, 2-[(Benzofuran-2-ylmethyl)-amino]-N-[1-(4-chloro-phenyl)-ethyl]-3-(1H-indol-3-yl)-2-methyl-propionamide], the IC50 is 17 nM.
Still for that read-out and setting: the value for `CC(Cc1c[nH]c2ccccc12)(NCc1cc2ccccc2o1)C(=O)NC1CCCc2ccccc21` (centres unmarked) [compound 148, 2-[(Benzofuran-2-ylmethyl)-amino]-3-(1H-indol-3-yl)-2-methyl-N-(1,2,3,4-tetrahydro-naphthalen-1-yl)-propionamide] was > 10000 nM; that for `CC(Cc1n[nH]c2ccccc12)NC(=O)C(C)(Cc1c[nH]c2ccccc12)NCc1cc2ccccc2o1` (centres unmarked) [compound 120, 2-[(Benzofuran-2-ylmethyl)-amino]-N-[2-(1H-indazol-3-yl)-1-methyl-ethyl]-3-(1H-indol-3-yl)-2-methyl-propionamide] was 2650 nM.
The same measure, in the same setting: the value for `CC(Cc1c[nH]c2ccccc12)(NCc1cc2ccccc2o1)C(=O)NCCN1CCNC1=S` (centres unmarked) [compound 132, 2-[(Benzofuran-2-ylmethyl)-amino]-3-(1H-indol-3-yl)-2-methyl-N-[2-(2-thioxo-imidazolidin-1-yl)-ethyl]-propionamide] was 6030 nM.
The same measure, in the same setting: the value for `CC(NC(=O)C(C)(Cc1c[nH]c2ccccc12)NCc1cc2ccccc2o1)c1ccc(F)cc1` (centres unmarked) [compound 33, 2-[(Benzofuran-2-ylmethyl)-amino]-N-[1-(4-fluoro-phenyl)-ethyl]-3-(1H-indol-3-yl)-2-methyl-propionamide] was 9 nM; that for `Cc1cccc(CNC(=O)C(C)(Cc2c[nH]c3ccccc23)NCc2cc3ccccc3o2)c1` (centres unmarked) [compound 129, 2-[(Benzofuran-2-ylmethyl)-amino]-3-(1H-indol-3-yl)-2-methyl-N-(3-methyl-benzyl)-propionamide] was 43 nM; that for `CN(C)c1ccc(CNC(=O)C(C)(Cc2c[nH]c3ccccc23)NCc2cc3ccccc3o2)cc1` (centres unmarked) [compound 60, 2-[(Benzofuran-2-ylmethyl)-amino]-N-(4-dimethylamino-benzyl)-3-(1H-indol-3-yl)-2-methyl-propionamide] was 964 nM.
For `CC(Cc1c[nH]c2ccccc12)(NCc1cc2ccccc2o1)C(=O)NCC1CCNCC1` (centres unmarked) [compound 156, 2-[(Benzofuran-2-ylmethyl)-amino]-3-(1H-indol-3-yl)-2-methyl-N-piperidin-4-ylmethyl-propionamide], the IC50 was > 10000 nM.
